Source: patent publication US20170275287A1, “NOVEL N2, N4, N7, 6-TETRASUBSTITUTED PTERIDINE-2,4,7-TRIAMINE AND 2, 4, 6, 7-TETRASUBSTITUTED PTERIDINE COMPOUNDS AND METHODS OF SYNTHESIS AND USE THEREOF” (Janus Biotherapeutics, Inc., priority 2014, published 2017)

Each compound was assayed against T1, TLR7 (Homo sapiens, UniProt Q9NYK1) (assay: Antagonist/agonist competitive inhibition cross titration (TLR7 agonist JB6011)). Details: antagonist 10 uM to 4 nM vs agonist 0.12-3.3 μM; preliminary, one assay.
T1 sequence (Q9NYK1 27-1049): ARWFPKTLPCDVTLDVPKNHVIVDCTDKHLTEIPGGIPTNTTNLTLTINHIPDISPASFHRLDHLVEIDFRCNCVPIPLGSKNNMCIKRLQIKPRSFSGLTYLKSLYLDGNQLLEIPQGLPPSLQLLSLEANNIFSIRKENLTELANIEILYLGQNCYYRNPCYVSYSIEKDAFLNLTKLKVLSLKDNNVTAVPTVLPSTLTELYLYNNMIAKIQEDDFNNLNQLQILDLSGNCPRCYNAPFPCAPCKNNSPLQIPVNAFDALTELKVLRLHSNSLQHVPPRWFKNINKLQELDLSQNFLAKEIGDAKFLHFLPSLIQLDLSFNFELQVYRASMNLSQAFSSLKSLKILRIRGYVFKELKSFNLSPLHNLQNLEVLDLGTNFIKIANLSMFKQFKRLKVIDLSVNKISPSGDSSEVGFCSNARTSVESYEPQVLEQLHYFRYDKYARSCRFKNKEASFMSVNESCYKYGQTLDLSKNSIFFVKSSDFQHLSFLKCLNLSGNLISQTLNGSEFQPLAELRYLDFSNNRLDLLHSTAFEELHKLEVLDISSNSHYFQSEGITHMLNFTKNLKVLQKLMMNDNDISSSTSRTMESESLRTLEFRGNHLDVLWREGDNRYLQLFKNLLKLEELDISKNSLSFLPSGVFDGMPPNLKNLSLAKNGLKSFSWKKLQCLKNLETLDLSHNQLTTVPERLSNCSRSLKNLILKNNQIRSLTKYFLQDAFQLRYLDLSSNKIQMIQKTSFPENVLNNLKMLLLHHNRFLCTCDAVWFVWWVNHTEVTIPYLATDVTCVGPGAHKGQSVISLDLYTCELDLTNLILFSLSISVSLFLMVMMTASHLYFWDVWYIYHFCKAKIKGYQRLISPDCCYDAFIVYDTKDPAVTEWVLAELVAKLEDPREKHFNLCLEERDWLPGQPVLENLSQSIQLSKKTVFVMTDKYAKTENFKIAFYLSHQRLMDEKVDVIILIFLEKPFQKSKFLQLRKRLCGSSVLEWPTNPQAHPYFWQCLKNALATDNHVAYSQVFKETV
Format: cell-based
Description: In preliminary results (i.e., one assay result—repeat assays in process), a cross titration of antagonist versus agonist was performed to determine the form of antagonist binding. JB6121 was titrated from 10 uM to 4 nM against various concentrations of challenge agonist. The small molecule TLR7 agonist JB6011 was used. The graph below, while crude, implies that the inhibition of the TLR7 agonist by JB6121 is competitive in nature due to the parallel tracking of the curves as the agonist dose is increased. The agonist range for this experiment was between 0.12 and 3.3 μM or about a 30-fold range.

SMILES	form of antagonist binding: inhibition of the TLR7 agonist JB6011
CN1CCN(c2nc(NCCN3CCOCC3)c3nc(Cl)c(NCCN4CCOCC4)nc3n2)CC1 [JB6121, 6-chloro-2-(4-methylpiperazin-1-yl)-N^4,N^7-bis(2-morpholinoethyl)pteridine-4,7-diamine]	competitive
CCCCNc1nc(NCCN2CCOCC2)c2nc(Cl)c(NCCN3CCOCC3)nc2n1 [JB6140]	comparable result

The compounds below were run against T1, TLR7 (assay: TLR7 antagonist assay in human PBMCs (ORN1075, IFNα ELISA)). Details: human PBMC, 0.5 μM ORN1075, IFNα readout.
Format: cell-based
Set-up: PBMCs were isolated from unpurified buffy coat from healthy human donors; host or cells: primary human PBMCs
Description: PBMCs were isolated from unpurified buffy coat from healthy human donors (Blood Research Components, LLC). For antagonist testing, cells were plated on 96-well U-bottom plates at 3×10^6 cells/ml. Antagonist compounds were added to cells in duplicate wells and titrated from 10 μM in 1:3 serial dilutions (8 antagonist concentrations tested in total). After approximately 30 minutes, cells were stimulated with agonist compound (see table 2 for agonist concentrations). After stimulation, cells were incubated overnight at 37° C. To increase the stability of the ssRNA, 3 μg/ml DOTAP (Roche) was added to ORN1075 agonist solutions. All dilutions were made in RPMI-1640 media (Sigma, cat.# R7388)+5% human male AB sera (Sigma, cat.# H4522)+1× Penicillin/Streptomycin solution (VWR, cat.#82026-730).
TLR activity was measured in PBMCs and neutrophils by ELISA using cytokine readouts specific for the TLR of interest.
IFNα was measured as a readout for TLR7 and TLR9 activity in PBMCs stimulated with either ORN1075, or ODN2395, respectively, using a Human Pan-IFNα ELISA kit (MABTech, cat.#3425-1H-20). PBMC supernatant was diluted 1:3 in PBS+0.05% tween-20+0.1% BSA. Absorbance at 450 nm was recorded using a Molecular Devices SpectraMax340PC plate reader. The IC50 for each antagonist was subsequently calculated following the method described below.
Raw ELISA datasets for each 96-well plate, consisting of absorbance readings at […], were first imported in Microsoft Excel to calculate the average absorbance for each standard or antagonist concentration. The averaged data was then imported into SigmaPlot v.11.0 where a standard curve was calculated and used to extrapolate the relative concentration of TLR readout (TNFα, IFNα, etc.) produced. The dose-response curve of each antagonist was then plotted with SigmaPlot v.11.0 on a Log scale. Concentrations of TLR readout were converted to a percentage relative to the average maximum concentration for that ELISA plate in Microsoft Excel. The IC50 for each antagonist was then determined with the SigmaPlot regression wizard using a 4-parameter Hill equation. Each antagonist was tested in a minimum of 3 independent experiments and IC50 results were compiled and averaged using Microsoft Excel.

IC50 [µM]	SMILES
0.024	C[C@@H]1CN(CCNc2nc3nc(N4CCN(C)CC4)nc(NCCN4C[C@@H](C)O[C@@H](C)C4)c3nc2Cl)C[C@H](C)O1 [JB6143]
0.028	COCCN1CCN(c2nc(NCCN3CCOCC3)c3nc(Cl)c(NCCN4CCOCC4)nc3n2)CC1 [JB6160]
0.064	CCOc1nc2c(NCCN3CCCC3)nc(-c3ccccc3)nc2nc1N1CCN(C)CC1 [JB6131]
0.502	CCOc1nc2c(NCCN3CCOCC3)nc(NCc3ccccc3)nc2nc1NCCN1CCOCC1 [JB6180]
0.223	Clc1nc2c(NCCN3CCOCC3)nc(N3CCOCC3)nc2nc1NCCN1CCOCC1 [JB6147]
0.081	CN1CCN(c2nc3nc(-c4ccccc4)nc(NCCN4CCOCC4)c3nc2OCCN2CCOCC2)CC1 [JB6116]
0.238	CCCCNc1nc(NCCN2CCOCC2)c2nc(Cl)c(NCCN3CCOCC3)nc2n1 [JB6140]
0.143	CN1CCN(c2nc(NCCN3CCOCC3)c3ncc(-c4ccccc4)nc3n2)CC1 [JB6059]
0.062	Clc1nc2c(NCCN3CCOCC3)nc(NCc3ccccc3)nc2nc1NCCN1CCOCC1 [JB6172]
0.074	CCCCNc1nc(NCCN2CCOCC2)c2nc(SCC)c(NCCN3CCOCC3)nc2n1 [JB6185]

SMILES	IC50 [µM]
CN1CCN(c2nc(NCCN3CCOCC3)c3nc(Cl)c(NCCN4CCOCC4)nc3n2)CC1 [JB6121, 6-chloro-2-(4-methylpiperazin-1-yl)-N^4,N^7-bis(2-morpholinoethyl)pteridine-4,7-diamine]	0.025
